As usually defined, the IC50 is the point on the concentration scale where inhibition reaches its midpoint. A higher IC50 goes with a need for much substance.

The source of these data is publication PMC9993459, “A novel selective spleen tyrosine kinase inhibitor SKI-O-703 (cevidoplenib) ameliorates lupus nephritis and serum-induced arthritis in murine models” (Clinical and Experimental Immunology, 2022).

The target of series [1] is KOR. In words: Kinase assay (LANCE Ultra TR-FRET), KOR. Type of series: biochemical. The note with it: kinase activity, TR-FRET. As for the experimental part: Kinase assays were conducted in 384-well plates using LANCE ultra 66 time-resolved fluorescence resonance energy transfer (TR-FRET) methods, according to the manufacturer’s instructions (Perkin-Elmer). In brief, each kinase was pre-incubated with a serially diluted compound for 30 min, incubated with ULight poly-GT peptide substrate and ATP for up to 1 h. Thirty minutes after adding Eu-labeled anti-phosphopeptides Ab diluted in LANCE Detection Buffer, LANCE signals were measured with an EnVision multilabel reader (Perkin-Elmer).

The test system of series [2] is NZB/W F1 mice. Kind of series: NZB/W mouse model of SLE / lupus nephritis, oral dosing. Type of series: in vivo. The following applies: 30 mpk oral once daily. As for the experimental part:
NZB/W female mice aged 18 weeks were assigned to four groups by distributing mice by body weight and anti-dsDNA IgG titer equivalently across the groups. Each group of mice was administered orally with 42 mg per kg body weight (mpk) of SKI-O-703 dissolved in 50 mM citric acid, 84 mpk of SKI-O-703, 30 mpk of tofacitinib (Selleckchem) dissolved in 0.5% carboxymethyl cellulose (Sigma Aldrich) containing 0.025% Tween 20, or a mixture of the two vehicles. The drugs were given once daily up to 34 weeks of age. Body weight was measured every 2 weeks and serum was collected every 4 weeks. At the termination of the experiments (34 weeks of age), serum, urine, spleen, BM, and kidneys were removed post mortem and assayed by histopathological and biochemical methods as below. Levels of blood urea nitrogen (BUN) and creatinine were measured by Knotus (Incheon, Korea).
Kidneys removed from the NZB/W mice were fixed in 4% paraformaldehyde, embedded in paraffin, sectioned at 3 μm thickness, and stained with periodic acid-Schiff (PAS) and hematoxylin (Sigma Aldrich). […] Glomerular size was measured using Image J software. To assess the glomerular size and hypercellularity of each mouse, more than 20 glomeruli per mouse were individually examined and averaged.
Kidneys and spleens of NZB/W mice were embedded in OCT compound (Sakura Finetek, Torrance, CA, USA) and snap-frozen in liquid nitrogen. Frozen sections were fixed in acetone and blocked with 10% normal donkey serum (Sigma Aldrich). Kidney sections were stained with a 1:200 dilution of anti-IgG-biotin (Sigma Aldrich), anti-IgM-biotin (Southern Biotech) and anti-C3-biotin (Bioss), followed by reaction with 1:200-dilution of streptavidin-cy3 (Invitrogen). Spleen sections were stained with anti-GL7-FITC, anti-CD4-APC, and anti-IgD-PE (all from BD Biosciences or eBioscience). Fluorescence images were acquired using a TCS SP5 confocal microscope (Leica). The area of GCs composed with GL7^+ cells per image was calculated using ImageJ software (NIH, Bethesda, MD, USA).
Titers of anti-dsDNA IgG Ab were measured by ELISA, as described previously. In brief, sera were diluted 1/10 000 to 1/50 000 in PBS and applied to immunosorbent plates (Nunc) precoated with 5 μg/ml poly-L-lysine and 5 μg/ml thymic DNA (Sigma Aldrich). The serum containing the highest titer of anti-dsDNA IgG was serially diluted and used as standard. The plates were incubated with anti-mouse IgG-biotin (Sigma Aldrich) and streptavidin-HRP (BD Biosciences). The concentration of albumin in urine was measured by quantitative ELISA using a mouse albumin ELISA kit (Bethyl), according to the manufacturer’s instructions. The concentration of serum B-cell activating factor of the TNF family (BAFF) was quantitated using a BAFF/BLys/TNFSF13B ELISA Kit (R&D Systems).
Single-cell suspensions of spleen and LN cells were prepared as previously described. Joint tissues from hind paws of KSTA mice were dissected free of soft tissue and bones, digested with 100 μg/ml Liberase (Roche) for 45 min at 37 °C, and filtered through a 70-μm-pore cell strainer (SPL Life Sciences) to prepare single cell suspensions of synovial infiltrates. The single cell suspensions were stained with an appropriate combination of mAbs and analyzed by FACS. The mAbs used were: CD138-PE, B220-PerCP or -APC-cy7, FAS-PE, CD19-PerCP or -APC, CD21-FITC or -APC, CD43-APC, CD23-PE-cy7, CD8a-PE, CD25-APC-cy7, CXCR5-biotin, GL7-FITC, CD45.2-FITC, CD27-FITC, Ki-67-FITC, Gr-1-FITC, CD4-FITC or -APC-cy7, phospho-Syk-PE, CD11b-PE or -PerCP, PD-1-APC, CD44-APC-cy7, and F4/80-PerCP mAbs (all from BD Biosciences, eBioscience or Biolegend). Streptavidin-PerCP was purchased from BD Biosciences.
Splenic CD19^+ B cells from NZB/W mice were sorted by MACS, and lysed with Trizol reagent (Invitrogen) followed by standard methods of total RNA purification. The RNA was assayed by RT and quantitative PCR as described. […]

Series [3] concerns mouse primary B cells. Kind of series: CP670-dilution proliferation assay, BCR crosslinking (anti-IgM) stimulated B cells. Type of series: cell-based. The note with it: up to 1 μM. On the procedure: Splenic CD19^+ B cells from C57BL/6 mice were sorted by MACS (Milteny Biotec), stained with 3 μM cell proliferation dye eFluor 670 (CP670; eBioscience), and cultured for 72 h in the presence of either 10 μg/ml LPS (Sigma Aldrich) or 5 μg/ml anti-mouse IgM (Jackson Immuno Research Laboratories), 10 μg/ml anti-CD40 mAb (Biolegend) and 10 ng/ml IL-4 (Peprotech), and assayed by FACS. To detect apoptotic cells, unstimulated cells were cultured for 24 h, stained with Annexin V and 7-aminoactinomycin D (7-AAD), and assayed by FACS.
Figure 2: in vitro effects of SKI-O -703 on the proliferation, survival, and differentiation of B cells. Mouse primary B cells were labeled with CP670, and stimulated with either anti-IgM mAb, CD40L and IL-4 (A) or LPS (B) for 72 h in the presence or absence of SKI-O-703 and tofacitinib at the indicated concentrations; they were then assayed by FACS. (C and D) Mouse primary B cells were cultured as in A and B for 24 h, stained with Annexin V and 7-AAD, and assayed by FACS. Representative FACS profiles and graphs displaying mean Annexin V-positivity are shown. (E) Human primary B cells were stimulated with CpG ODN plus IL-2 (to detect IgM and IgG) or CpG ODN 2006 plus IFN-α (to detect IL-6) in the presence or absence of inhibitors. The culture supernatants were assayed by ELISA. Graphs are expressed as % positivity relative to the controls (without inhibitor). […]

In series [4] the test system is human primary B cells. Kind of series: IgM, IgG and IL-6 secretion by stimulated human primary B cells (ELISA). Type of series: cell-based. The note with it: human primary B cells. As for the experimental part: Human CD19^+ B cells (Lonza) were pre-treated with inhibitors for 1 h and stimulated for 24 h with 50 nM CpG ODN 2006 plus 10 ng/ml IL-2 or 1 μM CpG ODN 2006 plus 20 ng/ml IFN-α. Culture supernatants were assayed by ELISA to detect secreted IgG, IgM, and IL-6, according to the manufacturer’s instructions.
Figure 2: in vitro effects of SKI-O -703 on the proliferation, survival, and differentiation of B cells. Mouse primary B cells were labeled with CP670, and stimulated with either anti-IgM mAb, CD40L and IL-4 (A) or LPS (B) for 72 h in the presence or absence of SKI-O-703 and tofacitinib at the indicated concentrations; they were then assayed by FACS. (C and D) Mouse primary B cells were cultured as in A and B for 24 h, stained with Annexin V and 7-AAD, and assayed by FACS. Representative FACS profiles and graphs displaying mean Annexin V-positivity are shown. (E) Human primary B cells were stimulated with CpG ODN plus IL-2 (to detect IgM and IgG) or CpG ODN 2006 plus IFN-α (to detect IL-6) in the presence or absence of inhibitors. The culture supernatants were assayed by ELISA. Graphs are expressed as % positivity relative to the controls (without inhibitor). The data are representative of 2–3 independent experiments. *P < 0.05, **P < 0.01, and ***P < 0.001, compared with vehicle control by two-tailed unpaired Students t-tests.
On the technique in general: ELISA stands for enzyme-linked immunosorbent assay.

Regarding `COc1cc(Nc2ncc(F)c(Nc3ccc4c(n3)NC(=O)C(C)(C)O4)n2)cc(OC)c1OC` [R406, reference compound], the half-inhibitory concentration (IC50) in series [1] amounted to 18.8 nM.

Take `C[C@@H]1CCN(C(=O)CC#N)C[C@@H]1N(C)c1ncnc2[nH]ccc12` [tofacitinib, reference compound]: in series [2] (18-34 weeks of age), the Body weights entry is “reduced both body weights and spleen weights”; the Spleen weights entry is “reduced both body weights and spleen weights”. For the same compound, the “Serum anti-dsDNA IgG Ab titer” value in series [2] (trend to reduction at 26 and 30 weeks of age) is “did not reach statistical significance”. Besides, the “Proliferation and death of primary B and T cells” value in series [3] is “did not significantly inhibit”. Besides, in series [4] (CpG ODN 2006 plus IFN-α), the IL-6 production entry is given as “even increased IL-6 production”. For the same compound, in series [4] (CpG ODN plus IL-2), the Ab production entry is “minimal effect”.
